# Measured values taken from BindingDB's records for doi:10.1016/j.bmcl.2009.01.098 (Glaxosmithkline, 2009).
# Target: Muscarinic acetylcholine receptor M3 (Homo sapiens, UniProt P20309)
# Experiment: Antagonist activity at human recombinant muscarinic M3 receptor expressed in CHO cells assessed as inhibition of acetylcholine-induced calcium mobilization by FLIPR based single concentration kinetic assay
# Sequence of Muscarinic acetylcholine receptor M3 (P20309 whole entry): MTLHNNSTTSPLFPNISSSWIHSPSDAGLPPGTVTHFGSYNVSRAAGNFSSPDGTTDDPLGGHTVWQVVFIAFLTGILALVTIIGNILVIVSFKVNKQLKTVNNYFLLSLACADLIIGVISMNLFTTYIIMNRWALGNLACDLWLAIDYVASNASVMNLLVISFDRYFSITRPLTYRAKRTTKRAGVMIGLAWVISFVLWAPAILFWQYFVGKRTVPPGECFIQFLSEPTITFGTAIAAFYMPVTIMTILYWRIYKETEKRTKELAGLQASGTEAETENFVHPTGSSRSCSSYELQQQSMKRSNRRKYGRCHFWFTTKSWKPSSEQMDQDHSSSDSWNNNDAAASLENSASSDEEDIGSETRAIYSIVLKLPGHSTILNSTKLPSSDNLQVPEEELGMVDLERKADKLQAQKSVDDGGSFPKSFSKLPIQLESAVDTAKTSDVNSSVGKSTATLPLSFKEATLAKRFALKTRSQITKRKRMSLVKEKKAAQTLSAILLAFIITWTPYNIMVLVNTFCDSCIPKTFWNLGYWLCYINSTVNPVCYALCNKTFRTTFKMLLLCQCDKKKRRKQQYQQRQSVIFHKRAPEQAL
row,SMILES,Kd [nM]
1,CC1CN(Cc2cccc(-c3cc(CNC(=O)c4cccc(CN5CCOCC5)c4)ccc3F)c2)CCN1 (stereo not drawn),0.126
2,CC1CN(Cc2cccc(-c3cc(CNC(=O)c4cccc(CN5CCN(C=O)CC5)c4)ccc3F)c2)CCN1 (stereo not drawn),0.0794
3,CC1CN(Cc2cccc(-c3cc(CNC(=O)c4cccc(CN5CCN(C)CC5)c4)ccc3F)c2)CCN1 (stereo not drawn),0.0316
4,CC1CN(Cc2cccc(-c3cc(CNC(=O)c4cccc(CN5CCN(CCCO)CC5)c4)ccc3F)c2)CCN1 (stereo not drawn),0.0631
5,CC1CN(Cc2cccc(-c3cc(CNC(=O)c4cccc(CN(C)CCCN(C)C)c4)ccc3F)c2)CCN1 (stereo not drawn),0.2
6,CC1CN(Cc2cccc(-c3cc(CNC(=O)c4cccc(CN5CCCN(C)CC5)c4)ccc3F)c2)CCN1 (stereo not drawn),0.251
7,CC1CN(Cc2cccc(-c3cc(CNC(=O)c4cccc(CN(C)C)c4)ccc3F)c2)CCN1 (stereo not drawn),3.16
8,CC1CN(Cc2cccc(-c3cc(CNC(=O)c4cccc(CN5CCCCC5)c4)ccc3F)c2)CCN1 (stereo not drawn),0.631
